Data published in article PMC8296573, “Synthesis and Biological Evaluation of Fingolimod Derivatives as Antibacterial Agents” (ACS Omega, 2021).
≈ marks a conversion by molar mass, not a printed value. Where two headings read alike, the source gives them in different places.

Key:
P. aeruginosa ATCC 9027 = experiment: Antibacterial activity, pre-exposure; assay type: cell-based, Pseudomonas aeruginosa; conditions: for Average inhibition %, biofilms viability / Average inhibition %, planktonic cells viability / inhibition at 50 µM / inhibition at 100 µM / inhibition at 150 µM / inhibition at 200 µM: P. aeruginosa ATCC 9027, pre-exposure, ± SD; for MIC / inhibition at 50 µM / inhibition at 100 µM / inhibition at 150 µM / inhibition at 200 µM: Pseudomonas aeruginosa; for inhibition at 50 µM / inhibition at 100 µM / inhibition at 150 µM / inhibition at 200 µM: ATCC9027
How it was run: (§1)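 Pre-exposure format: compound and bacterial culture co-incubated 18 h, 37 °C, aerobic, 220 rpm. Planktonic: turbidity (OD) plus resazurin viability, 20 μM final. Biofilm: PBS wash, 20 μM resazurin, then ethanol fixation and crystal violet staining, A595.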

A. baumannii NCTC 13423 = experiment: Antibacterial activity, pre-exposure; assay type: cell-based, Acinetobacter baumannii; conditions: for Average inhibition %, biofilms viability / Average inhibition %, planktonic cells viability / inhibition at 10 µM / inhibition at 15 µM / inhibition at 25 µM / inhibition at 50 µM: A. baumannii NCTC 13423, pre-exposure, ± SD; for inhibition at 10 µM / inhibition at 15 µM / inhibition at 25 µM / inhibition at 50 µM / MIC: Acinetobacter baumannii, NCTC13423
How it was run: as §1

S. aureus ATCC 25923 [1] = experiment: Antibacterial activity, pre-exposure (planktonic cells and biofilm formation); assay type: cell-based, Staphylococcus aureus; conditions: for MIC / inhibition at 5 µM / inhibition at 10 µM / inhibition at 15 µM / inhibition at 25 µM: Staphylococcus aureus, ATCC25923; for inhibition at 5 µM / inhibition at 10 µM / inhibition at 15 µM / inhibition at 25 µM / Average inhibition %, biofilms viability / Average inhibition %, planktonic cells viability: pre-exposure, ± SD
How it was run: as §1

S. aureus ATCC 25923 [2] = experiment: Antibacterial activity, post-exposure on preformed 18-h-old biofilms; assay type: cell-based, Staphylococcus aureus; conditions: for Average inhibition %, biofilms viability / Average inhibition %, planktonic cells viability / inhibition at 25 µM / inhibition at 50 µM / inhibition at 100 µM / inhibition at 200 µM: ± SD; for inhibition at 25 µM / inhibition at 50 µM / inhibition at 100 µM / inhibition at 200 µM: Staphylococcus aureus; for inhibition at 25 µM: ATCC25923, 25 µM; for inhibition at 50 µM: ATCC25923, 50 µM; for inhibition at 100 µM: ATCC25923, 100 µM; for inhibition at 200 µM: ATCC25923, 200 µM
How it was run: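 Compounds were applied to preformed 18-h biofilms after medium change and left 24 h. Read-outs: planktonic OD plus resazurin fluorescence (20 μM), biofilm metabolic activity by resazurin 30 min at 37 °C, then biomass by crystal violet absorbance at 595 nm after ethanol fixation.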

[3] = 50 µM, read-out: Average inhibition %, biofilms biomass
[4] = 50 µM, read-out: Average inhibition %, planktonic cells turbidity
[5] = 10 µM, read-out: Average inhibition %, biofilms biomass
[6] = 10 µM, read-out: Average inhibition %, planktonic cells turbidity
[7] = 15 µM, read-out: Average inhibition %, biofilms biomass
[8] = 15 µM, read-out: Average inhibition %, planktonic cells turbidity
[9] = 25 µM, read-out: Average inhibition %, biofilms biomass
[10] = 25 µM, read-out: Average inhibition %, planktonic cells turbidity
[11] = read-out: Average inhibition %, biofilms biomass
[12] = read-out: Average inhibition %, planktonic cells turbidity

CCCCCCCCc1ccc(CC(N)(CO)CO)cc1 [Compound 44, 2-Amino-2-(4-octylbenzyl)propane-1,3-diol]
Average inhibition %, biofilms viability (P. aeruginosa ATCC 9027; 50 µM): 9 ± 8% | Average inhibition %, planktonic cells viability (P. aeruginosa ATCC 9027; 50 µM): 31.4 ± 12.8% | Average inhibition %, biofilms viability (P. aeruginosa ATCC 9027; 100 µM): 43 ± 44.4% | Average inhibition %, planktonic cells viability (P. aeruginosa ATCC 9027; 100 µM): 95.8 ± 3.5% | Average inhibition %, biofilms viability (P. aeruginosa ATCC 9027; 150 µM): 42.2 ± 50.3% | Average inhibition %, planktonic cells viability (P. aeruginosa ATCC 9027; 150 µM): 92.1 ± 9.3% | Average inhibition %, biofilms viability (P. aeruginosa ATCC 9027; 200 µM): 34.5 ± 36.6% | Average inhibition %, planktonic cells viability (P. aeruginosa ATCC 9027; 200 µM): 88.7 ± 10.2% | MIC (P. aeruginosa ATCC 9027; ATCC9027, pre-exposure, Inactive = no activity up to 200 μM, > = some inhibition but no MIC reached, read-out: MIC P. aeruginosa ATCC 9027): > 200 µM | MIC (P. aeruginosa ATCC 9027; ATCC9027, supplementary molecular formula strings sheet, read-out: MIC (P. aeruginosa)): > 200 µM | inhibition at 50 µM (P. aeruginosa ATCC 9027; [3]): 35.2 ± 19.9% | inhibition at 50 µM (P. aeruginosa ATCC 9027; [4]): 28.4 ± 10.9% | inhibition at 100 µM (P. aeruginosa ATCC 9027; 100 µM, read-out: Average inhibition %, biofilms biomass): 57.7 ± 30.4% | inhibition at 100 µM (P. aeruginosa ATCC 9027; 100 µM, read-out: Average inhibition %, planktonic cells turbidity): 93.7 ± 2.6% | inhibition at 150 µM (P. aeruginosa ATCC 9027; 150 µM, read-out: Average inhibition %, biofilms biomass): 54.7 ± 35.2% | inhibition at 150 µM (P. aeruginosa ATCC 9027; 150 µM, read-out: Average inhibition %, planktonic cells turbidity): 92.2 ± 4.8% | inhibition at 200 µM (P. aeruginosa ATCC 9027; 200 µM, read-out: Average inhibition %, biofilms biomass): 48.7 ± 28.5% | inhibition at 200 µM (P. aeruginosa ATCC 9027; 200 µM, read-out: Average inhibition %, planktonic cells turbidity): 88.5 ± 4.4% | Average inhibition %, biofilms viability (A. baumannii NCTC 13423; 10 µM): 0.6 ± 1% | Average inhibition %, planktonic cells viability (A. baumannii NCTC 13423; 10 µM): 12.3 ± 2.4% | Average inhibition %, biofilms viability (A. baumannii NCTC 13423; 15 µM): 8.6 ± 7.8% | Average inhibition %, planktonic cells viability (A. baumannii NCTC 13423; 15 µM): 9.2 ± 5.8% | Average inhibition %, biofilms viability (A. baumannii NCTC 13423; 25 µM): 88.7 ± 15.2% | Average inhibition %, planktonic cells viability (A. baumannii NCTC 13423; 25 µM): 83.5 ± 27.6% | Average inhibition %, biofilms viability (A. baumannii NCTC 13423; 50 µM): 99.9 ± 1% | Average inhibition %, planktonic cells viability (A. baumannii NCTC 13423; 50 µM): 99.8 ± 0.5% | inhibition at 10 µM (A. baumannii NCTC 13423; [5]): 0% | inhibition at 10 µM (A. baumannii NCTC 13423; [6]): 0% | inhibition at 15 µM (A. baumannii NCTC 13423; [7]): 5.6 ± 6.5% | inhibition at 15 µM (A. baumannii NCTC 13423; [8]): 2.8 ± 3.7% | inhibition at 25 µM (A. baumannii NCTC 13423; [9]): 69.4 ± 13.7% | inhibition at 25 µM (A. baumannii NCTC 13423; [10]): 88.1 ± 19% | inhibition at 50 µM (A. baumannii NCTC 13423; [3]): 86.2 ± 2.3% | inhibition at 50 µM (A. baumannii NCTC 13423; [4]): 98.3 ± 1.2% | MIC (A. baumannii NCTC 13423; pre-exposure, Inactive = no activity up to 50 μM, > = some inhibition but no MIC reached, read-out: MIC A. baumannii NCTC 13423): 25 to 50 µM (≈ 7.34 to 14.7 µg/mL) | MIC (A. baumannii NCTC 13423; supplementary molecular formula strings sheet, read-out: MIC (A. baumannii)): 25 to 50 µM (≈ 7.34 to 14.7 µg/mL) | MIC (S. aureus ATCC 25923 [1]; lowest concentration with no visible growth (>90% inhibition of turbidity and viability of planktonic cells), 18 h, read-out: MIC S. aureus ATCC 25923): 15 to 25 µM (≈ 4.4 to 7.34 µg/mL) | inhibition at 5 µM (S. aureus ATCC 25923 [1]; 5 µM, read-out: Average inhibition %, biofilms biomass): 23.2 ± 23.4% | inhibition at 5 µM (S. aureus ATCC 25923 [1]; 5 µM, read-out: Average inhibition %, planktonic cells turbidity): 18.4 ± 6.2% | inhibition at 10 µM (S. aureus ATCC 25923 [1]; [5]): 36.6 ± 27.8% | inhibition at 10 µM (S. aureus ATCC 25923 [1]; [6]): 31.2 ± 8.9% | inhibition at 15 µM (S. aureus ATCC 25923 [1]; [7]): 76.6 ± 21.5% | inhibition at 15 µM (S. aureus ATCC 25923 [1]; [8]): 79.2 ± 28.2% | inhibition at 25 µM (S. aureus ATCC 25923 [1]; [9]): 93.1 ± 4.2% | inhibition at 25 µM (S. aureus ATCC 25923 [1]; [10]): 99.1 ± 0.7% | MIC (S. aureus ATCC 25923 [1]; read-out: MIC (S. aureus)): 15 to 25 µM (≈ 4.4 to 7.34 µg/mL) | Average inhibition %, biofilms viability (S. aureus ATCC 25923 [1]; 5 µM): 24.9 ± 12.6% | Average inhibition %, planktonic cells viability (S. aureus ATCC 25923 [1]; 5 µM): 0 ± 0% | Average inhibition %, biofilms viability (S. aureus ATCC 25923 [1]; 10 µM): 44.4 ± 4.9% | Average inhibition %, planktonic cells viability (S. aureus ATCC 25923 [1]; 10 µM): 0 ± 0% | Average inhibition %, biofilms viability (S. aureus ATCC 25923 [1]; 15 µM): 76.2 ± 29.5% | Average inhibition %, planktonic cells viability (S. aureus ATCC 25923 [1]; 15 µM): 66.8 ± 54.1% | Average inhibition %, biofilms viability (S. aureus ATCC 25923 [1]; 25 µM): 99.7 ± 0% | Average inhibition %, planktonic cells viability (S. aureus ATCC 25923 [1]; 25 µM): 100 ± 0.2% | Average inhibition %, biofilms viability (S. aureus ATCC 25923 [2]; 25 µM): 21 ± 11.5% | Average inhibition %, planktonic cells viability (S. aureus ATCC 25923 [2]; 25 µM): 3.8 ± 6.6% | Average inhibition %, biofilms viability (S. aureus ATCC 25923 [2]; 50 µM): 38.2 ± 8.2% | Average inhibition %, planktonic cells viability (S. aureus ATCC 25923 [2]; 50 µM): 56.1 ± 15.4% | Inhibition of viability and total biomass of preformed biofilms (S. aureus ATCC 25923 [2]; 100 μM): at least 70% | Average inhibition %, biofilms viability (S. aureus ATCC 25923 [2]; 100 µM): 74 ± 21.5% | Average inhibition %, planktonic cells viability (S. aureus ATCC 25923 [2]; 100 µM): 99.8 ± 0.6% | Average inhibition %, biofilms viability (S. aureus ATCC 25923 [2]; 200 µM): 98.5 ± 0.1% | Average inhibition %, planktonic cells viability (S. aureus ATCC 25923 [2]; 200 µM): 100.1 ± 0.1% | inhibition at 25 µM (S. aureus ATCC 25923 [2]; [11]): 36 ± 3.3% | inhibition at 25 µM (S. aureus ATCC 25923 [2]; [12]): 6.1 ± 10.6% | inhibition at 50 µM (S. aureus ATCC 25923 [2]; [11]): 51.6 ± 10.7% | inhibition at 50 µM (S. aureus ATCC 25923 [2]; [12]): 58.6 ± 10.2% | inhibition at 100 µM (S. aureus ATCC 25923 [2]; [11]): 70.5 ± 19.2% | inhibition at 100 µM (S. aureus ATCC 25923 [2]; [12]): 84.7 ± 3.3% | inhibition at 200 µM (S. aureus ATCC 25923 [2]; [11]): 92 ± 1.2% | inhibition at 200 µM (S. aureus ATCC 25923 [2]; [12]): 85.9 ± 5.3%
